Data set [1] has as its target T1, recombinant HIV reverse transcriptase (HIV RTR) (Human immunodeficiency virus type 1 group M subtype B, UniProt P04585).
T1 construct: recombinant HIV reverse transcriptase (HIV RTR)
The data set is described as follows: Reverse Transcriptase Assay. It is filed as biochemical. The settings on record: incorporation of [3H]dGMP into acid-precipitable cDNA; dGTP and poly r(C).oligo d(G)12-18 at Km; 37° C., 45 minutes; read-out: calculated IC50 value. The protocol: The assay measures the incorporation of tritiated deoxyguanosine monophosphate by recombinant HIV reverse transcriptase (HIV RTR) (or other RT) into acid-precipitable cDNA at the Km values of dGTP and poly r(C).oligo d(G)12-18.
Thirty uL of a reaction mixture containing equal volumes of: 500 mM Tris.HCl (pH 8.2), 300 mM MgCl2, 1200 mM KCl, 10 mM DTT, 400 μg/mL poly r(c).oligo d(G) [prepared by dissolving 1.5 mg (25 U) poly r(C).oligo d(G) in 1.5 ml sterile distilled H2 O and diluting to 400 μg/ml], 0.1 μCi/μl [^3 H] dGTP, 160 μM dGTP, was added to 10 μl sterile distilled H2 O, and 2.5 μl of potential inhibitor. An aliquot of 10 μL of 5 nM purified HIV RTR was added to initiate the reaction. The mixture was incubated at 37° C. for 45 minutes.
After incubation is complete, the tubes were cooled in ice for 5 minutes. Ice-cold 13% TCA containing 10 mM NaPPi (200 μl) are added and the mixture incubated on ice for 30 minutes. The precipitated cDNA is removed by filtration using presoaked glass filters [TCA, NaPPi ]. The precipitate is then washed with 1N HCl, 10 mM NaPPi.
The filter discs are then counted in a scintillation counter.
Under these conditions [dGTP] and poly r(C).oligo d(G)12-18 each are approximately equal to the appropriate Km value. Approximately 5-6,000 cpm of [^3 H] GMP are incorporated into acid-precipitable material. The RT reaction is concentration- and time-dependent.

Data set [2] can be described thus: Incubation With Rat Liver Slices. It is filed as in vitro ADME. The procedure:
Incubation of tritiated 3-[2-(benzoxazol-2-yl)ethyl]-5-ethyl-6-methyl-2-(1H)-pyridinone (parent compound/14.18 μmol) with rat liver slices (6.1 g) in 100 ml of Williams Medium E at pH. […] Ethyl acetate extraction gave a recovery of ~70% of the tritiated material, while ~25% (~9 HPLC peaks) remained in the aqueous residue.

pIC50: −log10 of the molar value.

Broadly, the pIC50 is the negative decadic logarithm of the IC50, by convention in mol/L. Turning to `Cc1[nH]c(=O)c(CCc2nc3ccccc3o2)cc1C(C)O` (stereo not drawn) [compound (I), 3-[2-(benzoxazol-2-yl)ethyl]-5-(1-hydroxyethyl)-6-methyl-2(1H)-pyridinone], in data set [1], the pIC50 was approximately 6.15. In data set [2] (ethyl acetate extract after four hours incubation of parent compound with rat liver slices), the “radioactive HPLC peak, share of the total metabolites” value is ~ 37%.

Consider `CCc1cc(CCc2nc3ccccc3o2)c(O)nc1C` [parent compound, 3-[2-(Benzoxazol-2-yl)ethyl]-5-ethyl-6-methyl-2-(1H)-pyridinone], for which the metabolised at 4 h in data set [2] (tritiated compound 14.18 μmol, rat liver slices 6.1 g, Williams Medium E, pH 7.4, 37° C., four hours, read-out: metabolism) was approximately 32%.
